According to US20260191196A1, “COMPOSITIONS AND METHODS FOR IMPROVING SOIL MICROBIAL POPULATIONS” (SYNGENTA CROP PROTECTION AG, priority 2022, published 2026):

These molecules were tested on arbuscular mycorrhizae fungi (assay: Mycorrhization in soybean roots after seed treatment). Settings: Glycine max; soybean variety Toliman, seed treatment 0.15 mg ai/seed, mycorrhizal inoculant Blend A; relative to control; read-out: [%] arbuscular mycorrhizae fungi colonization vs. control.
Type: in vivo
Protocol: Soybeans of variety Toliman were treated with 0.15 mg ai/seed of cyclobutrifluram and analogues, and planted in 1.5 L pots of 0-3 mm sieved soil. The seeds were inoculated with Bradyrhizobium japonicum using a commercially available product for soybeans.
In a first series, for each active ingredient tested, 15 replicate pots were sowed. In each pot, 3 seeds were sowed. After germination, 2 seedling was removed from each pot to a final number of 1 plant per pot. Each pot was inoculated with a small amount of a mycorrhizal inoculant (Blend A, commercially available from Symbiom, Czech Republic). The plants were grown in a greenhouse for 81 days under the following conditions: Humidity at 45-64%, Temperature of 22° C. to 24° C., in a 16/8 hour day/night cycle. In a further test series, Soybeans seeds treated as outlined above were then planted in 1 Lpots of 0-3 mm sieved soil. For each active ingredient, 8 replicate pots were sowed, whereby in each pot, 3 seeds were sowed. After germination, 2 seedlings were removed from each pot to a final number of 1 plant per pot.
The plants were then grown in a growth chamber for 42 days with the following conditions: Temperature of 20° C. and with a 12/12 hour day/night.
After harvest, the percent mycorrhization was quantified using the methods of McGonigle et al. (T. P. McGONIGLE, M. H. MILLER and D. G. EVANS et al., “A new method which gives an objective measure of colonization of roots by vesicular-arbuscular mycorrhizal fungi”. New Phytol. Vol. 115 (3): 495-501.).

Going from O=C(N[C@H]1CC[C@H]1c1ccc(F)cc1F)c1nccnc1C(F)(F)F [Compound A1] to O=C(N[C@@H]1CO[C@@H]1c1ccc(F)cc1F)c1nccnc1C(F)(F)F (racemic) [Compound A5], the response vs control in vivo at 0.15 mg/seed rises from 61% to 81%.

First: O=C(N[C@H]1CC[C@H]1c1ccc(F)cc1Cl)c1cccnc1C(F)(F)F [Compound A2]
Second: O=C(N[C@H]1CC[C@H]1c1ccc(F)cc1Cl)c1ncccc1C(F)(F)F [Compound A3]
The response vs control in vivo at 0.15 mg/seed of the first is lower: 72% for the first, 84% for the second.

Going from O=C(N[C@@H]1CO[C@@H]1c1ccc(Cl)cc1Cl)c1cccnc1C(F)(F)F (racemic) [Compound A7] to O=C(N[C@@H]1CO[C@@H]1c1ccc(Cl)cc1Cl)c1nccnc1C(F)(F)F (racemic) [Compound A6], the response vs control in vivo at 0.15 mg/seed rises from 76% to 97%.

O=C(N[C@H]1CC[C@H]1c1ccc(F)cc1F)c1ncccc1C(F)(F)F [Compound A4] was tested, and the response vs control in vivo at 0.15 mg/seed was 67%.

What follows are molecules tested on bacteria (16S) and fungi (ITS) communities (assay: Potato field trial: soil microbiome community and biodiversity). Settings: not given.
Type: in vivo, potato (Solanum tuberculosum L.)
Protocol: In this experiment, assuming that biodiversity can be measured by the taxonomic richness and abundance of each taxon, the differences between treatments are determined and their effect on populations and beneficial species over time is verified. This leads to testing two hypotheses. Firstly, there is an impact of cyclobutrifluram applications on microbial diversity. Secondly, the use of cyclobutrifluram improves beneficial microbial diversity over time. These hypotheses were tested in two potato farms in the USA.
The experiment was carried out in two potato (Solanum tuberculosum L.) fields located in two test locations in Louisiana, USA, described as locations A and B in Table 2. In each experimental field, three products were tested in an area of 10 m^2 (Table 3) and three replicates per product were established by complete block randomized. To evaluate the effects on the microbiome a “Check” plot (untreated) was established. In addition, fluopyram was employed as a comparative example. Fluopyram is a widely used fungicide and nematicide, and represents the industry standard herein.
To analyse the microbial biodiversity, three soil samples were taken per treatment and each sample consisted of soil collected from three different points within the plots. In this way, the effect of soil variability was minimized, since there were nine samples per treatment. […]
As set out above, to detect microbial community modifications in the soil microbiome associated with the cyclobutrifluram treatment, PCR amplification and successive high-throughput sequencing of bacterial and fungal taxonomical marker genes (the small-subunit ribosomal RNA gene (16S) and the ribosomal internal transcribed spacers (ITS) respectively) were performed on plant-associated soil samples. An exploratory data analysis was conducted to describe the microbial biodiversity and the behaviour of the percentage of the abundance of species under the evaluated factors. […]

For O=C(NCCc1ncc(C(F)(F)F)cc1Cl)c1ccccc1C(F)(F)F [fluopyram], the “beneficial effect on soil microbiome” value was “did not show any beneficial effect”.

Same assay, conditions: 250 gai/ha

With O=C(NCCc1ncc(C(F)(F)F)cc1Cl)c1ccccc1C(F)(F)F [fluopyram] the “impact on plant-pathogenic microbes” value was “showed an impact in promoting in particular plant-pathogenic microbes”.
